According to doi:10.1101/2020.10.22.350827v1 (biorxiv, 2020):
Substitutions are numbered along the chain they refer to.

Columns and labels:
[1] = biological target: T1, Nluc-A1R (adenosine A1 receptor) (Homo sapiens, UniProt P30542, T257A); assay: NanoBRET competition binding, live HEK […] cells; format: cell-based
T1 sequence (P30542 1-326 T257A): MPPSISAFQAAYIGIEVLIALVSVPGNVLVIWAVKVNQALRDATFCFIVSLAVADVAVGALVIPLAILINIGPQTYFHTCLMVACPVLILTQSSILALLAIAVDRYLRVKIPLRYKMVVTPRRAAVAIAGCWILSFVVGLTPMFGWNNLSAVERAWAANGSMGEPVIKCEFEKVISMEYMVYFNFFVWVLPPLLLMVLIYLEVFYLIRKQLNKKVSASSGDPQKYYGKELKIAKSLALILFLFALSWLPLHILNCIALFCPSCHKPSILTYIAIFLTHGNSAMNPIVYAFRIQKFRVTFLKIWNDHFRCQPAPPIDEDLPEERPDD

[2] = biological target: T2, Nluc-A1R (adenosine A1 receptor) L253F (Homo sapiens, UniProt P30542, L253F); assay: cell-based; parameters: species or system HEK 293
T2 sequence (P30542 1-326 L253F): T1 sequence (P30542 1-326 T257A) with L253F, A257T

Ki [1]: 115 nM | Ki [2]: 1620 nM
Compound: OC[C@H]1O[C@@H](n2cnc3c(N[C@@H]4CCC[C@H]4O)ncnc32)[C@H](O)[C@@H]1O [compound 6, HOCPA]
